Reference: patent publication US11963848B2, “Impactor platform allowing freefall upon impact” (George Mason University, priority 2019, dated 2024)

Tested on: C57Bl/6J wild-type mice with rmTBI
Experiment: Morris Water Maze assessment for spatial memory in rmTBI mice, intranasal zinc vs vehicle
Format: in vivo
Experimental: Subjects were C57Bl/6J wild-type mice that were 6 weeks of age at the time of the first stressor. All mice received rmTBI delivered using a system 100/200.
For 7 days, stress groups were subject to a rotation of varied stressors, including: • 1. Deprivation of food, water, and enrichment for 8 hours. • 2. Exposure to soiled rat bedding in home cage. • 3. Exposure to bobcat urine in home cage. • 4. Forced swim in ice bath for 5 minutes. • 5. Home cage flooded with water. • 6. Home cage placed on orbital shaker for 5 minutes. • 7. Loud static noise for 1 hour. • 8. Restraint in conical Falcon tube for 1 hour.
A second week of varied stressors was administered concurrently with rmTBI. The rmTBI closed-head injury was induced by Leica One Controlled Cortical Impact device with falling platform as in system 100, causing the mouse to rotate upon impact. Anesthetized mice received one mTBI every 48 hours over the course of 7 days for a total of 4 injuries. Immediately following injury, mice were intranasally administered either zinc treatment or vehicle control (water).
Changes in behavior were also analyzed, using the Morris Water Maze assessment for spatial memory over 7 days. In this measure of learning and memory, the mouse is tested for the ability to locate a platform in a pool of water using visual cues. Days 1-6 had 3 trials, and days 2, 4 and 6 used a hidden platform for trial 3. Day 7 comprised a 24-hr probe trial.

zinc
time spent in the quadrant of the maze where the platform was present (Morris water maze) (day 6, non-stressed mice only, trending stress x zinc interaction F(1,39)=4.002, p=0.052, zinc intranasally after injury vs vehicle, FIG. 11): beneficial effect | number of platform crossings (Morris water maze) (effect only for stressed mice, stress x zinc interaction F(1,39)=4.207, p=0.047, zinc intranasally after injury vs vehicle, FIG. 10): significantly increased | latency in locating the maze platform (Morris water maze) (stressed and non-stressed, zinc intranasally immediately after each injury vs vehicle control (water), F(1,39)=2.184, p=0.147, FIG. 9): did not differ
